Results on 10 molecules are retold here after patent publication US10005779B2, “1′,4′-thio nucleosides for the treatment of HCV” (priority 2013, dated 2018).

Where two headings read alike, the source gives them in different places. A value given as a limit tells only on which side of the number the result lay.

What is called EC50 is the concentration giving half of the maximal effect. As usually defined, the CC50 is the concentration at which the toxic effect on the cells reaches its halfway point. Lower therefore signals greater toxicity to the cells. The IC50 is the concentration that gives 50% inhibition. Read a high IC50 as weaker potency in that assay.

Data set [1] deals with HCV genotype 1b replicon in Huh-7-derived cell line (Zluc). The data set can be described thus: microbe, parasite or virus in culture. In kind it is cell-based. The note with it: Hepatitis C virus, read-out: HCV Replicon EC50. On the procedure:
Huh-7-derived cell line (Zluc) that harbors an HCV genotype 1b replicon and a luciferase reporter gene was grown in Dulbecco's Modified Eagle Medium (DMEM) supplemented with 10% fetal bovine serum, 2 mM GlutaMAX, 1% MEM nonessential amino acids, 100 IU/mL penicillin, 100 μg/mL streptomycin, and 0.5 mg/mL Geneticin® (G418). For dose response testing the cells were seeded in 96-well plates at 7.5×10^3 cells per well in a volume of 50 μL, and incubated at 37° C./5% CO2. Drug solutions were made up freshly in Huh-7 media as 2× stocks. Ten additional 5-fold dilutions were prepared from these stocks in DMEM without G418. At least three hours after Zluc cells were seeded, drug treatment was initiated by adding 50 μL of drug dilutions to the plates in duplicate. […] Cells were then incubated at 37° C./5% CO2. Alternatively, compounds were tested at two concentrations (1 μM and 10 μM). […] For this, media was removed from the plates via gentle tapping. Fifty microliters of ONE-glo luciferase assay reagent was added to each well. […] The EC50 values were calculated from dose response curves from the resulting best-fit equations determined by Microsoft Excel and XLfit 4.1 software.
(In general: Replicon systems follow genome replication, usually without infectious particles.)

A short description of data set [2]: Cytotoxicity evaluation, CellTiter-Blue Cell Viability Assay. In kind it is cell-based. The note with it: human, Zluc cells (HCV replicon cells). As for the experimental part: For cytotoxicity evaluation, Zluc cells were treated with compound as described herein, and cell viability was monitored using the CellTiter-Blue Cell Viability Assay (Promega) by adding 20 μL of the assay solution to each well. The plates were then incubated at 37° C./5% CO2 for at least 3 hours.
In general terms: Resazurin is reduced to fluorescent resorufin, in cell work by metabolically active cells.

The target of data set [3] is T1, wild-type HCV genotype 1b NS5B polymerase (Hepatitis C virus genotype 1b, UniProt Q9WMX2).
T1 construct: recombinant HCV polymerases (with a deletion of the 21 carboxy terminal amino acids); made in house
The data set can be described thus: HCV polymerase enzyme assay, wild-type. Format: biochemical. The source says: (§1) Test compounds in the form of nucleoside triphosphates were examined for inhibitory activity against purified HCV polymerase in a standard assay. Bacterial expression constructs encoding the approximately 65 kDa HCV genotype 1b NS5B protein were used to generate recombinant HCV polymerases (with a deletion of the 21 carboxy terminal amino acids). Both the wild-type genotype 1b protein and protein containing the S282T mutation were expressed and purified for use in the enzymatic activity assay.
(§2) The enzymatic activity assay measured the inhibitory effect of increasing concentrations of test compound on the incorporation of α-[^33P]-labeled nucleotide into trichloroacetic acid-precipitable material. Recombinant polymerase and synthetic RNA template were combined in reaction buffer containing ribonucleoside triphosphates, α-[^33P]-labeled nucleotide and eight concentrations of test compound in three-fold dilutions. Reactions were incubated for two hours at 30° C.
(§3) Reactions were terminated by the addition of ice-cold trichloroacetic acid and sodium pyrophosphate to promote precipitation of newly-synthesized ribonucleic acid. Precipitable material from the reactions was collected by filtration onto 96-well filter plates, washed extensively with water, and quantified by liquid scintillation.
(§4) The inhibitory activity of test compounds was determined by fitting results to dose-response curves using XLfit software.

Data set [4] has as its target T2, HCV genotype 1b NS5B polymerase containing the S282T mutation (Hepatitis C virus genotype 1b, UniProt Q9WMX2, S2701T).
T2 construct: recombinant HCV polymerases (with a deletion of the 21 carboxy terminal amino acids); made in house
The data set is described as follows: HCV polymerase enzyme assay, S282T mutant. Format: biochemical.
Excerpt: as §1, §2, §3, §4

Setting [5] is: Zluc cells, 72 hours of incubation, luciferase readout.

As for `CC(C)OC(=O)[C@H](C)N[P@](=O)(OC[C@H]1S[C@@H](n2ccc(=O)[nH]c2=O)[C@H](O)[C@@H]1O)Oc1ccccc1` [Compound 2bii], the EC50 in data set [1] (setting [5]) was greater than 10 µM. The molecule also gave a half-maximal cytotoxic concentration (CC50) at 72 h in data set [2] greater than 50 µM.
Taken in the same sequence, the figures for `CC(C)(C)C(=O)SCCOP(=O)(NCc1ccccc1)OC[C@H]1S[C@@H](n2ccc(=O)[nH]c2=O)[C@H](O)[C@@H]1O` (mixture of isomers) [3 mixture of diastereomers] were greater than 10 µM and greater than 50 µM.
For `CC(C)OC(=O)[C@H](C)NP(=O)(OCCSC(=O)C(C)(C)C)OC[C@H]1S[C@@H](n2ccc(=O)[nH]c2=O)[C@H](O)[C@@H]1O` (single isomer, unassigned) [4b diastereomer 1], the half-maximal effective concentration (EC50) in data set [1] (setting [5]) was greater than 10 µM. In data set [2], this molecule gave a cytotoxic concentration (CC50) at 72 h greater than 50 µM.
Consider `O=c1ccn([C@@H]2S[C@H](COP(=O)(O)OP(=O)(O)OP(=O)(O)O)[C@@H](O)[C@H]2O)c(=O)[nH]1` [Compound 202], for which the 50% inhibitory concentration (IC50) in data set [3] and in data set [4] was 0.25 to 1 µM in each case.
Regarding `CC(C)OC(=O)[C@H](C)NP(=O)(OC[C@H]1S[C@@H](n2ccc(=O)[nH]c2=O)[C@](C)(O)[C@@H]1O)Oc1ccccc1` (single isomer, unassigned) [1b diastereomer 1], the half-maximal effective concentration (EC50) in data set [1] (72 h) is greater than 10 µM. The molecule also yielded a CC50 at 72 h in data set [2] greater than 50 µM.
For `C[C@@]1(O)[C@H](O)[C@@H](COP(=O)(O)OP(=O)(O)OP(=O)(O)O)S[C@H]1n1ccc(=O)[nH]c1=O` [Compound 201], the half-maximal inhibitory concentration (IC50) in data set [3] was 1 to 10 µM; in data set [4], greater than 10 µM.
In the case of `CC(C)OC(=O)[C@H](C)NP(=O)(OCCSC(=O)C(C)(C)C)OC[C@H]1S[C@@H](n2ccc(=O)[nH]c2=O)[C@H](O)[C@@H]1O` (mixture of isomers) [4b mixture of diastereomers], the EC50 in data set [1] (setting [5]) is greater than 10 µM. The CC50 at 72 h in data set [2] is greater than 50 µM.
In the case of `Nc1nc2c(ncn2[C@@H]2S[C@H](COP(=O)(O)OP(=O)(O)OP(=O)(O)O)[C@@H](O)[C@H]2O)c(=O)[nH]1` [Compound 203], the IC50 in data set [3] lay within 0.25 to 1 µM; in data set [4], 1 to 10 µM.
For the molecule `CC(C)OC(=O)[C@@H](C)NP(=O)(OC[C@H]1S[C@@H](n2ccc(=O)[nH]c2=O)[C@H](O)[C@@H]1O)Oc1ccccc1` (mixture of isomers) [2a mixture of diastereomers], the half-maximal effective concentration (EC50) in data set [1] (setting [5]) is greater than 10 µM. Moreover, the CC50 at 72 h in data set [2] is greater than 50 µM.
Take `CC(C)OC(=O)[C@H](C)N[P@@](=O)(OC[C@H]1S[C@@H](n2ccc(=O)[nH]c2=O)[C@H](O)[C@@H]1O)Oc1ccccc1` [Compound 2bi]: the EC50 in data set [1] (setting [5]) was greater than 10 µM. This molecule registered a 50% cytotoxic concentration (CC50) at 72 h in data set [2] greater than 50 µM.
